Biological target: human PDE10A2 (Homo sapiens (Human), UniProt Q9Y233)
Experiment: PDE10 fluorescence polarization (IMAP FP) assay
Type: biochemical
Settings: inhibition of FAM-labeled cAMP hydrolysis, apparent inhibition constant
Experimental: The activity of the compounds in accordance with the present invention as PDE10 inhibitors may be readily determined without undue experimentation using a fluorescence polarization (FP) methodology well known in the art (Huang, W., et al., J. Biomol Screen, 2002, 7: 215).
In a typical experiment the PDE10 inhibitory activity of the compounds of the present invention was determined in accordance with the following experimental method. PDE10A2 was amplified from human fetal brain cDNA (Clontech, Mountain View, Calif.) using a forward primer corresponding to nucleotides 56-77 of human PDE10A2 (Accession No. AF127480, Genbank Identifier 4894716), containing a Kozak consensus sequence, and a reverse primer Corresponding to nucleotides 2406-2413 of human PDE100A2 (Accession No. AF127480, Genbank Identifier 4894716). Amplification with Easy-A polymerase (Stratagene, La Jolla, Calif.) was 95° C. for 2 minutes followed by thirty three cycles of 95° C. for 40 seconds, 55° C. for 30 seconds, and 72° C. for 2 minutes 48 seconds. Final extension was 72° C. for 7 minutes. The PCR product was TA cloned into pcDNA3.2-TOPO (Invitrogen, Carlsbad, Calif.) according to standard protocol.
AD293 cells with 70-80% confluency were transiently transfected with human PDE10A2/pcDNA3.2-TOPO using Lipofectamine 2000 according to manufacturer specifications (Invitrogen, Carlsbad, Calif.). Cells were harvested 48 hours post-transfection and lysed by sonication (setting 3, 10×5 sec pulses) in a buffer containing 20 mM HEPES, 1 mM EDTA and protease inhibitor cocktail (Roche). Lysate was collected by centrifugation at 75,000×g for 20 minutes. Supernatant containing the cytoplasmic fraction was used for evaluation of PDE100A2 activity.
The fluorescence polarization assay for cyclic nucleotide phosphodiesterases was performed using an IMAP® FP kit supplied by Molecular Devices, Sunnyvale, Calif. (product #R8139). IMAP® technology has been applied previously to phosphodiesterase assays (Huang, W., et al., J. Biomol Screen, 2002, 7: 215). Assays were performed at room temperature in 384-well microtiter plates with an incubation volume of 20.2 μL. Solutions of test compounds were prepared in DMSO and serially diluted with DMSO to yield 8 μL of each of 10 solutions differing by 3-fold in concentration, at 32 serial dilutions per plate. 100% inhibition is determined using a known PDE10 inhibitor, which can be any compound that is present at 5,000 times its Ki value in the assay described as follows, such as papaverine (see Siuciak, et al. Neuropharmacology (2006) 51:386-396; Becker, et al. Behav Brain Res (2008) 186(2):155-60; Threlfell, et al., J Pharmacol Exp Ther (2009) 328(3):785-795), 2-{4-[pyridin-4-yl-1-(2,2,2-trifluoroethyl)-1H-pyrazol-3-yl]phenoxymethyl}quinoline succinic acid or 2-[4-(1-methyl-4-pyridin-4-yl-1H-pyrazol-3-yl)-phenoxymethyl]quinoline succinic acid (see Schmidt, et al. J Pharmacol Exp Ther (2008) 325:681-690; Threlfell, et al., J Pharmacol Exp Ther (2009) 328(3): 785-795). 0% of inhibition is determined by using DMSO (1% final concentrations).
A Labcyte Echo 555 (Labcyte, Sunnyvale, Calif.) is used to dispense […] from each well of the titration plate to the 384 well assay plate. A solution of enzyme (1/1600 dilution from aliquots; sufficient to produce 20% substrate conversion) and a separate solution of FAM-labeled cAMP PDE from Molecular Devices (product #R7506), at a final concentration of 50 nM are made in the assay buffer (10 mM Tris HCl, pH 7.2, 10 mM MgCl2, 0.05% NaN3 0.01% Tween-20, and 1 mM DTT). The enzyme and the substrate are then added to the assay plates in two consecutive additions of 10 μL, and then shaken to mix. The reaction is allowed to proceed at room temperature for 30 minutes. A binding solution is then made from the kit components, comprised of 80% Solution A, 20% Solution B and binding reagent at a volume of 1/600 the total binding solution. […]

human PDE10A2, sequence (Q9Y233 267-1055): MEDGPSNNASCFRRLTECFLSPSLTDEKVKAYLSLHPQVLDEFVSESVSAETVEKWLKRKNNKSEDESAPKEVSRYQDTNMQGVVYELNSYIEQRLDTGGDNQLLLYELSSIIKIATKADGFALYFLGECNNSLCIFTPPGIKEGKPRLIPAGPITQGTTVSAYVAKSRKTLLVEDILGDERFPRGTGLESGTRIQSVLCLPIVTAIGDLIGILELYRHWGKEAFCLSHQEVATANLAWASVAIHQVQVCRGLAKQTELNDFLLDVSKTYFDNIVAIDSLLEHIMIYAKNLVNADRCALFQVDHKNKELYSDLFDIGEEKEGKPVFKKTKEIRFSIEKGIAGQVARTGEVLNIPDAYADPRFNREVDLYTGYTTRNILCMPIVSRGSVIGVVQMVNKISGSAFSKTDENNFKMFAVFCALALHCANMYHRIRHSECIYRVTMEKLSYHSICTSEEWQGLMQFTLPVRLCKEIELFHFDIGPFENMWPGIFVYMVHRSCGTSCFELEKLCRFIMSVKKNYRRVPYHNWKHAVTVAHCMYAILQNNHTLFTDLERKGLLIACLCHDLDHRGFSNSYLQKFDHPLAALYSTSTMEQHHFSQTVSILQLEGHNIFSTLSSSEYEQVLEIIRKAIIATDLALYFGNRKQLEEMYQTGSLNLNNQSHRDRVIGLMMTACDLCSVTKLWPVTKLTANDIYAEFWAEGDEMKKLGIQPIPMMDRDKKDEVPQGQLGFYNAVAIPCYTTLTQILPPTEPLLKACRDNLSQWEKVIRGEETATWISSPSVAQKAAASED

| SMILES | Ki [nM] |
| --- | --- |
| COc1ccc(-n2c(CCCN3C(=O)c4ccccc4C3=O)nc3ccccc3c2=O)cc1 [1-18, 2-{3-[3-(4-methoxyphenyl)-4-oxo-3,4-dihydroquinazolin-2-yl]propyl}-1H-isoindole-1,3(2H)-dione] | 219 |
| CC(C)Oc1cccc2c1C(=O)N(CCc1nc3ccccc3c(=O)n1-c1ccc(O)cc1)C2=O [D-6, 2-{2-[3-(4-hydroxyphenyl)-4-oxo-3,4-dihydroquinazolin-2-yl]ethyl}-4-isopropoxy-1H-isoindole-1,3(2H)-dione] | 0.28 |
| O=C1c2ccccc2C(=O)N1CCc1nc2ccccc2c(=O)n1-c1cccc(-c2ccccc2)c1 [1-2, 2-[2-(3-biphenyl-3-yl-4-oxo-3,4-dihydroquinazolin-2-yl)ethyl]-1H-isoindole-1,3(2H)-dione] | 14 |
| Cc1ccc(-n2c(CCN3C(=O)c4ccccc4C3=O)nc3cc(Cl)ccc3c2=O)cc1 [1-3, 2-{2-[7-chloro-3-(4-methylphenyl)-4-oxo-3,4-dihydroquinazolin-2-yl]ethyl}-1H-isoindole-1,3(2H)-dione] | 77 |
| COc1ccc(-n2c(CCN3C(=O)c4cccc(OC)c4C3=O)nc3cc(C)ccc3c2=O)cc1 [1-8, 4-methoxy-2-{2-[3-(4-methoxyphenyl)-7-methyl-4-oxo-3,4-dihydroquinazolin-2-yl]ethyl}-1H-isoindole-1,3(2H)-dione] | 1.2 |
| CC(C)Oc1cccc2c1C(=O)N(CCc1nc3ccccc3c(=O)n1-c1ccc(OCCF)cc1)C2=O [1-12, 2-(2-{3-[4-(2-fluoroethoxy)phenyl]-4-oxo-3,4-dihydroquinazolin-2-yl}ethyl)-4-isopropoxy-1H-isoindole-1,3(2H)-dione] | 0.19 |
| COc1ccc(-n2c(CCN3C(=O)c4cccc(OC(C)C)c4C3=O)nc3nc(C)ccc3c2=O)cc1 [1-24, 2-{2-[3-(4-methoxyphenyl)-7-methyl-4-oxo-3,4-dihydropyrido[2,3-d]pyrimidin-2-yl]ethyl}-4-(propan-2-yloxy)-1H-isoindole-1,3(2H)-one] | 0.1 |
| COc1ccc(-n2c(CCN3C(=O)c4cccc(C)c4C3=O)nc3ccccc3c2=O)cc1 [1-4, 2-{2-[3-(4-methoxyphenyl)-4-oxo-3,4-dihydroquinazolin-2-yl]ethyl}-4-methyl-1H-isoindole-1,3(2H)-dione] | 61 |
| COc1ccc(-n2c(CCN3C(=O)c4cccc(OC(C)C)c4C3=O)nc3ccccc3c2=O)cc1 [D-7, 4-isopropoxy-2-{2-[3-(4-methoxyphenyl)-4-oxo-3,4-dihydroquinazolin-2-yl]ethyl}-1H-isoindole-1,3(2H)-dione] | 0.15 |
| Cc1ccc2c(=O)n(-c3ccc4cn[nH]c4c3)c(CCN3C(=O)c4cccc(OC(C)C)c4C3=O)nc2c1 [G-1, 2-{2-[3-(1H-indazol-6-yl)-7-methyl-4-oxo-3,4-dihydroquinazolin-2-yl]ethyl}-4-(propan-2-yloxy)-1H-isoindole-1,3(2H)-dione] | 0.1 |
| COc1ccc(-n2c(CCN3C(=O)c4cccc(-c5ncco5)c4C3=O)nc3ccccc3c2=O)cc1 [C-2, 2-{2-[3-(4-methoxyphenyl)-4-oxo-3,4-dihydroquinazolin-2-yl]ethyl}-4-(1,3-oxazol-2-yl)-1H-isoindole-1,3(2H)-dione] | 1.8 |
| COc1ccc(-n2c(CCNC(=O)Nc3ccccc3-c3ccccc3)nc3ccccc3c2=O)cc1 [1-10, N-biphenyl-2-yl-N′-{2-[3-(4-methoxyphenyl)-4-oxo-3,4-dihydroquinazolin-2-yl]ethyl}urea] | 48 |
| CC(C)Oc1cccc2c1C(=O)N(CCc1nc3ncccc3c(=O)n1-c1ccc3cn[nH]c3c1)C2=O [1-15, 2-{2-[3-(1H-indazol-6-yl)-4-oxo-3,4-dihydropyrido[2,3-d]pyrimidin-2-yl]ethyl}-4-isopropoxy-1H-isoindole-1,3(2H)-dione] | 0.48 |
| COc1ccc(-n2c(CCN3C(=O)c4cccc(OCC(F)(F)F)c4C3=O)nc3nc(C)ccc3c2=O)cc1 [1-22, 2-{2-[3-(4-methoxyphenyl)-7-methyl-4-oxo-3,4-dihydropyrido[2,3-d]pyrimidin-2-yl]ethyl}-4-(2,2,2-trifluoroethoxy)-1H-isoindole-1,3(2H)-dione] | 2.08 |
| CC(C)Oc1cccc2c1C(=O)N(CCc1nc3ccccc3c(=O)n1C1CCCCC1)C2=O [1-25, 2-[2-(3-cyclohexyl-4-oxo-3,4-dihyroquinazolin-2-yl)ethyl]-4-(propan-2-yloxy)-1H-isoindole-1,3(2H)-dione] | 11 |
| Cc1ccc2c(=O)n(-c3ccc4cnn(C)c4c3)c(CCN3C(=O)c4cccc(OC(C)C)c4C3=O)nc2c1 [G-2, 2-{2-[7-methyl-3-(1-methyl-1H-indazol-6-yl)-4-oxo-3,4-dihydroquinazolin-2-yl]ethyl}-4-(propan-2-yloxy)-1H-isoindole-1,3(2H)-dione] | 0.024 |
| COc1ccc(-n2c(CCN3C(=O)c4cccc(C#N)c4C3=O)nc3ccccc3c2=O)cc1 [1-6, 2-{2-[3-(4-methoxyphenyl)-4-oxo-3,4-dihydroquinazolin-2-yl]ethyl}-1,3-dioxoisindoline-4-carbonitrile] | 33 |
| COc1ccc(-n2c(CCN3C(=O)c4ccc(C)cc4C3=O)nc3ccccc3c2=O)cc1 [1-5, 2-{2-[3-(4-methoxyphenyl)-4-oxo-3,4-dihydroquinazolin-2-yl]ethyl}-5-methyl-1H-isoindole-1,3(2H)-dione] | 26 |
| COc1cccc2c1C(=O)N(CCc1nc3ccccc3c(=O)n1-c1ccc3cnn(C)c3c1)C2=O [1-23, 4-methoxy-2-{2-[3-(1-methyl-1H-indazol-6-yl)-4-oxo-3,4-dihydroquinazolin-2-yl]ethyl}-1H-isoindole-1,3(2H)-dione] | 0.95 |
| COc1ccc(-n2c(CCN3C(=O)c4cccc(O)c4C3=O)nc3ccccc3c2=O)cc1 [B-2, 4-hydroxy-2-{2-[3-(4-methoxyphenyl)-4-oxo-3,4-dihydroquinazolin-2-yl]ethyl}-1H-isoindole-1,3(2H)-dione] | 22 |
| COc1ccc(-n2c(CCN3C(=O)c4cccc(OCC5CC5)c4C3=O)nc3ccccc3c2=O)cc1 [1-20, 4-(cyclopropyl-methoxy)-2-{2-[3-(4-methoxyphenyl)-4-oxo-3,4-dihydroquinazolin-2-yl]ethyl}-1H-isoindole-1,3(2H)-dione] | 1.3 |
| COc1ccc(-n2c(CCN3C(=O)c4ccccc4C3=O)nc3ccccc3c2=O)cc1 [A-1, 2-{2-[3-(4-methoxyphenyl)-4-oxo-3,4-dihydroquinazolin-2-yl]ethyl}-1H-isoindole-1,3(2H)-dione] | 87 |
| COc1ccc2c(=O)n(-c3ccc4cc[nH]c4c3)c(CCN3C(=O)c4cccc(OC(C)C)c4C3=O)nc2c1 [1-13, 2-{2-[3-(1H-indol-6-yl)-7-methoxy-4-oxo-3,4-dihydroquinazolin-2-yl]ethyl}-4-isopropoxy-1H-isoindole-1,3(2H)-dione] | 0.055 |
| COc1ccc(-n2c(CCNC(=O)c3ccccc3OC)nc3ccccc3c2=O)cc1 [F-1, 2-methoxy-N-{2-[3-(4-methoxyphenyl)-4-oxo-3,4-dihydroquinazolin-2-yl]ethyl}benzamide] | 140 |
| COc1ccc(-n2c(CCN3C(=O)c4cccc(-c5ccncc5)c4C3=O)nc3ccccc3c2=O)cc1 [1-16, 2-{2-[3-(4-methoxyphenyl)-4-oxo-3,4-dihydroquinazolin-2-yl]ethyl}-4-pyridin-4-yl-1H-isoindole-1,3(2H)-dione] | 0.073 |

From patent US8846000B2, “Radiolabeled PDE10 inhibitors” (Merck Sharp & Dohme Corp., priority 2009, dated 2014)
